Entries after “also recorded” stand apart in the source; their conditions may differ. Ends that are not written are not given here.
Experiments:
PGE2 = experiment: Intestinal IR, ex vivo PGE2 generation; assay type: in vivo, mouse; set-up: key to PGE2 Production: + indicates significant difference from Sham treated mice; − indicates not significantly different from C57B1/6 sham treated mice; +/− indicates no significant difference from either C57B1/6 mice subjected to either Sham or IR; settings: for IR-induced intestinal PGE2 production: C57Bl/6 mice, peptide 40 μM prior to IR
Protocol: C57Bl/6 and Rag-1^−/− mice were subjected to ischemia followed by reperfusion similar to previously described studies (Moses, T. et al., J. Leukoc. Biol. 86:971-980 (2009)). Briefly, ketamine (16 mg/kg) and xylazine (80 mg/kg) were used to anesthetize the mice. Buprenorphine (0.06 mg/kg) was then administered for pain. A midline laparotomy was performed to expose the abdominal cavity of the mice, which were then allowed to equilibrate for 30 min. Body temperature was maintained at 37° C. using a water-circulating heat pad. Placing a warm, saline moistened piece of gauze over the abdominal cavity prevented peritoneal desiccation. […] Ischemia was noted by the intestine changing from a pink color to a gray color. After 30 min of ischemia, the clamp was removed and the intestines were allowed to reperfuse for 5, 10, 15, or 120 min. […] Peptides 296, 305, and 296Cys to Ser were dissolved in N. Saline (0.9% NaCl) and injected i.v. in 100-μL volumes. Peptides 100 and 181 were dissolved in DMSO prior to diluting 1/100 in N. Saline. Additional mice received peptides prior to Sham treatment.
Ex vivo generation of eicosanoids by mid-jejunal tissue was determined. Immediately after collection, a 2-cm intestinal section from each mouse was minced, washed, resuspended in 37° C. oxygenated Tyrode's buffer (Sigma-Aldrich; St. Louis, Mo.), incubated at 37° C. for 20 minutes, and the supernatant collected. PGE2 and LTB4 concentrations were determined using enzyme immunoassay kits (Cayman Chemical; Ann Arbor, Mich.). IL-6 and IL-12 concentrations were determined using a Milliplex MAP immunoassay kit (Millipore) and read on a Milliplex Analyzer (Millipore). All eicosanoid and cytokine concentrations were standardized to the total tissue protein content.
(§1) Total peroxidase, LTB4, PGE2, IL-6, IL-12p40, and IL-12p70 concentrations were determined using the procedures described in Example 1.

CD31 = experiment: B16-F10 melanoma model, CD31 expression in tumors; assay type: in vivo, mouse
Protocol: mRNA was isolated from the tumor samples that were homogenized in Trizol. The concentration of mRNA was evaluated by nanodrop and the purity by bioanalyzer. cDNA was then synthesized using random primers with the Quanta cDNA synthesis kit. Real-time PCR was then performed on a 1:100 dilution of cDNA for 18s rRNA. After 3 min denaturing at 95° C., the real-time PCR reaction consisted of 50 cycles (of 10 sec at 95° C., 20 sec at 58° C., and 10 sec at 72° C.), followed by a melt curve increasing at intervals of 0.5° from 60° C. to 95° C. RT-PCR was also performed on cDNA samples for CD31 and endoglin which are endothelial markers of angiogenesis. Fold change of each gene was determined by subtracting 18s for normalization of RNA and fold change was determined by comparing to original cells which were set to 1. Primers were obtained from Integrated DNA Technology (Coraville, Iowa) and sequences are in the table below.
OCT cryopreserved tumor sections were cut and stained similar to intestinal sections in Example 1. CD31 and Pan-endothelial expression was detected by FITC conjugated rat anti-mouse CD31 or pan-endothelial antibodies (Biolegend, San Diego, Calif.). Each experiment contained serial sections stained with the appropriate isotype control antibodies. All slides were mounted with ProLong Gold (Invitrogen) and images were obtained and analyzed as described in Example 1.

peroxidase = experiment: Intestinal IR, total tissue peroxidase; assay type: in vivo, mouse; settings: for total peroxidase production by the intestinal tissues: administered up to 60 min post-reperfusion
Protocol: Ischemia/reperfusion was performed on ketamine/xylazine anesthetized mice as described in Example 1 above. After 2 hours of reperfusion, the mice were euthanized and sera, liver, spleen, and 2 cm sections of the small intestine, approximately 10 cm distal to the gastroduodenal junction, were collected for histological and other analyses. Mice treated with the various β2-GPI peptides underwent the same procedure with i.v. administration of the peptides. Most studies assumed 2 mL total blood volume in a mouse and administered peptides to a final concentration of 40 μM at 5 min prior to ischemia. Dose response studies administered 1-40 μM peptide at 5 min prior to ischemia and time course studies administered 40 μM peptide at 5 min prior to ischemia, and at 15-, 30- or 60-min post-ischemia (i.e., during reperfusion).
as §1

[1] = system: thioglycollate-elicited macrophages, nitric oxide; experiment: β2-GPI stimulated macrophage nitric oxide production; assay type: cell-based; settings: mouse β2-GPI 10 μg/mL, peptide 40 μM, 18 hours
Protocol: C57Bl/6 mice were injected i.p. with 1 mL thioglycollate (4%) 4 days prior to peritoneal lavage. Peritoneal exudate macrophages or the B cell line, LK35.2, were seeded at 2×10^6 cells/mL in 24-well or 96-well plates. After macrophage adherence, both cell types were treated with mouse β2-GPI (10 μg/mL) with or without peptide (40 μM). Additional cells were unstimulated as a negative control or stimulated with 10 μg/mL LPS (E. coli 055B5) as a positive control. Supernatants were collected 18-20 hours after stimulation and analyzed for nitrite by Griess reagent (Hoffman & Fleming, Cell Biochem. Funct. 28:686-694 (2010)) or IL-6 by Milliplex MAP kit (Millipore) following the manufacturer's instructions using a Luminex 200 with xPONENT 3.1 and Analyst software (Millipore).

[2] = C57Bl/6 mice subjected to IR, peptide 40 μM i.v. 5 min prior to artery occlusion
[3] = 10 μM peptide 5 min prior to IR
[4] = administered at 15 min post-reperfusion
[5] = dose response, similar concentrations of each peptide
[6] = peptide administered prior to IR

With “H-IHFYCKNKEKKCSYTVEAHCRDGTI-OH (cysteine pairing not given here) [peptide 296]” the “PGE2 Production” value (PGE2; [2]) was “−” and the “IR-induced intestinal PGE2 production” value (PGE2) was “attenuated; also recorded: blocked”.

“H-IHFYSKNKEKKSSYTVEAHSRDGTI-OH [peptide 296Cys-Ser]” was tested, and the “protein expression of both endothelial markers” value (CD31; immunohistochemistry of tumors) was “decreased”, the “CD31 RNA expression within the tumors” value (CD31; peptide treatment on days 1-4, 6, and 8, qRT-PCR) was “attenuated” and the PGE2 Production (PGE2; [3]) was “optimally attenuated”. For the same substance, the “PGE2 Production” value (PGE2; [2]) was “−”, the “IR-induced intestinal PGE2 production” value (PGE2) was “attenuated; also recorded: blocked” and the PGE2 Production (PGE2; [4]) was “attenuated”. The “total peroxidase production by the intestinal tissues” value (peroxidase) was “significantly decreased”, the intestinal peroxidase production (peroxidase; [5]) was “attenuated” and the intestinal peroxidase production (peroxidase; [6]) was “significantly attenuated”. The “β2-GPI-induced nitric oxide production” value [1] was “significantly attenuated”.

In the case of “H-IPSCFKEHSSLAFWKTDASELTPC-NH2 (cysteine pairing not given here) [peptide 322, 18]”, the “PGE2 Production” value (PGE2; [2]) is reported as “+” and the “IR-induced intestinal PGE2 production” value (PGE2) is reported as “sustained inflammation similar to untreated mice”.

“H-KKCSYTVEAHCRDGTIEIPSCFKEHS-OH (cysteine pairing not given here) [peptide 305, 10]” was tested, and the PGE2 Production (PGE2; [3]) was “optimally attenuated”, the “PGE2 Production” value (PGE2; [2]) was “+/−” and the “IR-induced intestinal PGE2 production” value (PGE2) was “did not attenuate; also recorded: but not eicosanoid production”. The PGE2 Production (PGE2; [4]) was “attenuated”, the “total peroxidase production by the intestinal tissues” value (peroxidase) was “significantly decreased” and the intestinal peroxidase production (peroxidase; [5]) was “attenuated”. For the same substance, the intestinal peroxidase production (peroxidase; [6]) was “significantly attenuated” and the “β2-GPI-induced nitric oxide production” value [1] was “significantly attenuated”.

With “H-KNISFACNPGFFLNG-NH2 [peptide 100, 16, reference compound]” the “PGE2 Production” value (PGE2; [2]) was “+” and the “IR-induced intestinal PGE2 production” value (PGE2) was “sustained inflammation similar to untreated mice”.
